Assay results published in patent US7037656B2, “Methods and compositions for identifying ligands for nuclear receptors” (priority 2000, dated 2006).

What was measured:
Experiment in all cases: Yeast 6x EcRE-lacZ β-galactosidase transactivation assay
Assay type in all cases: cell-based
Cf EcR = target: T1, Cf EcR (Choristoneura fumiferana, UniProt O77240); conditions: RH 5992 10 μM, 4 hours, DMSO control 0.201
T1 construct: human ubiquitin (76 aa) (N, cleaved yes); expressed in transfected cells; host or cells: yeast (Saccharomyces cerevisiae), plasmid YEpCfEcR, CUP1 promoter
Experimental: (§1) Briefly, yeast cells are cultured in 5 mL of YPD liquid medium overnight at 30° C. The cell culture was diluted 1:20 in YPD media and further grown until cell density reached an O.D of 0.6. at OD600. The cells were pelleted by centrifugation and washed with 10 mL of TE+0.1M lithium acetate. Cells are then resuspended in 10 mL TE+0.1M lithium acetate and incubated at 30° C. for 1 hour. Cells are collected and resuspended in 0.5 mL of TE+ 0.1M lithium acetate. Aliquots of cells (50 μL), were incubated for 15 minutes at 30° C. with 1–2 μg plasmid DNA in the presence of 5 μg of denatured salmon sperm DNA as DNA carrier. In the case of co-transformation, the indicated plasmids were added simultaneously. 50% polyethyleneglycol of molecular weight 4000, diluted in TE, was added to a final concentration of 35%. DMSO was added to the transformation solution simultaneously to a final concentration 3%. The samples were mixed well by vortexing and incubated for an additional 30 minutes at 30° C. The cell mixture is then heated for 15 minutes at 42° C. Cells were then collected and plated onto appropriate yeast selective media. Transformants of 4 plasmids are selected on the complete media without tryptophan, uracil, leucine and histidine.
(§2) The yeast cells grown overnight in selective liquid media at 30° C. were diluted in prewarmed liquid selective media to 0.1 at OD600 (ODculture). 100 μl of the cell culture was spiked to each well of a.96-well microtiter plate. Ligand (2 μl diluted in DMSO) was added to each well giving a final concentration of DMSO of 2%. As a control, 2 μl of DMSO were also added to additional test wells. The final concentration of the tested compounds in the media is 10 μM. The cells were incubated in the presence of ligand in a shaker at 30° C. After 4 hours of incubation, 100 μl of 2× “Z” Sarcosine-ONPG buffer (120 mM Na2HPO4, 80 mM NaH2PO4, 20 mM KCl, 2 mM MgSO4, 100 mM beta-mercaptoethanol (Sigma), pH 7.0, 0.4% lauroyl sarcosine (Sigma), 4 mg/mL ONPG (Diagnostic Chemicals limited) was added to each well and the plate was further incubated at 37° C. The 2× “Z” Sarcosine-ONPG buffer is freshly prepared or stored at −20° C. prior to use. After incubation at 37° C. for 1 hour. The reaction was stopped by adding 100 μL of quenching solution 0.5 M Na2CO3 and OD405 (ODreaction) and beta-galactosidase activity was measured in a micro plate reader (Biotek) at a wave length of 405–450 nanometers. The effect of copper on enhancement of the transactivation response mediated by the ligands tested was studied by adding CuSO4 to the media to a final concentration of 10 μM.
(§3) Using the transformation method described above, yeast were co-transformed with a reporter gene as shown in FIG. 2 and the expression vector encoding the full-length Choristoneura fumiferana ecdysone receptor, Cf EcR (FIG. 5A) in the presence or absence of the Cf EcR heterodimer partner, Cf USP (FIG. 6A). Transformed cells were incubated with DMSO alone as a control, or with a proprietary ecdysone receptor ligand (Rohm & Haas RH5992) at final concentration 10 μM for 4 hours. The samples were then assayed for β-galactosidase activity as described above. […] However, as with all systems tested, fruit fly, mosquito and spruce bud worm, co-expression of CfEcR with CfUSP did give rise to constitutive transactivation of reporter gene. […] However, deletion of the A/B domain of the CfUSP abolished this constitutive transactivation of the reporter gene. Thus, in the spruce bud worm system, constitutive transcription is not observed when CfEcR/Cf ΔAB USP or Cf ΔAB EcR/Cf ΔAB USP are co-expressed. […] Ligand dependent transactivation was observed only in the presence of the co-activator GRIP1. We also observed stronger ligand dependent activity for the Cf ΔA/B EcR+Cf ΔA/B USP+GRIP1 combination than the CfEcR+CfΔA/B USP+GRIP1 combination.

Cf EcR + Cf ΔA/B USP = target: T2, Cf EcR + Cf ΔA/B USP (Choristoneura fumiferana, UniProt O77240); conditions: RH 5992 10 μM, 4 hours, DMSO control 0.205
T2 construct: human ubiquitin (76 aa) (N, cleaved yes); expressed in transfected cells; host or cells: yeast (Saccharomyces cerevisiae)
Experimental: as §1, §2, §3

[1] = target: T3, Cf EcR + Cf ΔA/B USP + GRIP1 (Choristoneura fumiferana, UniProt O77240)
T3 construct: human ubiquitin (76 aa) (N, cleaved yes); expressed in transfected cells; host or cells: yeast (Saccharomyces cerevisiae); GRIP1 from pRS423-ADH1GRIP812
Experimental: as §1, §2, §3

Cf EcR + CfUSP = target: T4, Cf EcR + CfUSP (Choristoneura fumiferana, UniProt O77240); conditions: RH 5992 10 μM, 4 hours, DMSO control 2.734
T4 construct: human ubiquitin (76 aa) (N, cleaved yes); expressed in transfected cells; host or cells: yeast (Saccharomyces cerevisiae)
Experimental: as §1, §2, §3

Cf USP = target: T5, Cf USP (Choristoneura fumiferana, UniProt O76202); conditions: RH 5992 10 μM, 4 hours, DMSO control 0.233
T5 construct: human ubiquitin (76 aa) (N, cleaved yes); expressed in transfected cells; host or cells: yeast (Saccharomyces cerevisiae), plasmid pRS425CfUSP, CUP1 promoter
Experimental: as §1, §2, §3

Cf ΔA/B EcR + Cf USP = target: T6, Cf ΔA/B EcR + Cf USP (Choristoneura fumiferana, UniProt O77240); conditions: RH 5992 10 μM, 4 hours, DMSO control 2.684
T6 construct: human ubiquitin (76 aa) (N, cleaved yes); expressed in transfected cells; host or cells: yeast (Saccharomyces cerevisiae)
Experimental: as §1, §2, §3

[2] = target: T7, Cf ΔA/B EcR + Cf ΔA/B USP (Choristoneura fumiferana, UniProt O77240); conditions: RH 5992 10 μM, 4 hours, DMSO control 0.209
T7 construct: human ubiquitin (76 aa) (N, cleaved yes); expressed in transfected cells; host or cells: yeast (Saccharomyces cerevisiae)
Experimental: as §1, §2, §3

T3 sequence (O77240 1-513, stated change not applied): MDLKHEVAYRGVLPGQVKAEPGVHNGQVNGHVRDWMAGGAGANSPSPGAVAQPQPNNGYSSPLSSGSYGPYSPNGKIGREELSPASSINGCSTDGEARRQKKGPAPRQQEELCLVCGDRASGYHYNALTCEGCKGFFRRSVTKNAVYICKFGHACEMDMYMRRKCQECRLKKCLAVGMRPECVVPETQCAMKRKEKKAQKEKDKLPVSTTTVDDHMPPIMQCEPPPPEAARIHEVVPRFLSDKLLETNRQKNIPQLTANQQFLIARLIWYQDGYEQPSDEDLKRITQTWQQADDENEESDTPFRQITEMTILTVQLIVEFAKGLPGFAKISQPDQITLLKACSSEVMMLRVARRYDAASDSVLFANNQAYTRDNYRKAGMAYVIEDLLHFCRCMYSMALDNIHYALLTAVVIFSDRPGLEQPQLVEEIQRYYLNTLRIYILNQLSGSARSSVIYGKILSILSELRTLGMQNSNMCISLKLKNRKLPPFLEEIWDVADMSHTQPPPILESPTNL
T3 sequence (O76202 with tags, fused parts or gaps partner): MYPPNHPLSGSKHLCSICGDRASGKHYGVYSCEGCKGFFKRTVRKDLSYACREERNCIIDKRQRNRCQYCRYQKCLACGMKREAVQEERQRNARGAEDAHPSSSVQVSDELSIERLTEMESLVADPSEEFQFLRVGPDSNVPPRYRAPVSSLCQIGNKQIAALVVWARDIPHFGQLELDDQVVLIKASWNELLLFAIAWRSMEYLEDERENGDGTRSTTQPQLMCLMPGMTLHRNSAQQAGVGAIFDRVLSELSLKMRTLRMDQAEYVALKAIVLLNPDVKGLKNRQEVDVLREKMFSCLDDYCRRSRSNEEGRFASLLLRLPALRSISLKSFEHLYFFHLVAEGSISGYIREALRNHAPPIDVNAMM
T4 sequence (O77240 1-513): as the sequence (O77240 1-513, stated change not applied) above
T4 sequence (O76202 whole entry partner): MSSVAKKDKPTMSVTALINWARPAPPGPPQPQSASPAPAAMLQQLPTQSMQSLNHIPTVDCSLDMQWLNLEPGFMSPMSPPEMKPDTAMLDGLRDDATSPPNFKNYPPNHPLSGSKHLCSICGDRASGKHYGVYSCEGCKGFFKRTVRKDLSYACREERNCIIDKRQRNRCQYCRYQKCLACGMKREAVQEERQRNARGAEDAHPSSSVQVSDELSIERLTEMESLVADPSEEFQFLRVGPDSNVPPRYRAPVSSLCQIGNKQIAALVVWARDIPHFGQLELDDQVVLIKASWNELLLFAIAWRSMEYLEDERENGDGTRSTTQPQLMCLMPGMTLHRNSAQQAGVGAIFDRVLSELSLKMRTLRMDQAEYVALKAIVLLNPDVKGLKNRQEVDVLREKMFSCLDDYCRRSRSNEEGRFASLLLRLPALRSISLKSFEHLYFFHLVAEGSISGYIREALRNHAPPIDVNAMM
T1 sequence (O77240 1-513): as the sequence (O77240 1-513, stated change not applied) above
T2 sequence (O77240 1-513, stated change not applied): as above
T2 sequence (O76202 with tags, fused parts or gaps partner): as the sequence (O76202 with tags, fused parts or gaps partner) above
T6 sequence (O77240 entry or part of it, stated change not applied): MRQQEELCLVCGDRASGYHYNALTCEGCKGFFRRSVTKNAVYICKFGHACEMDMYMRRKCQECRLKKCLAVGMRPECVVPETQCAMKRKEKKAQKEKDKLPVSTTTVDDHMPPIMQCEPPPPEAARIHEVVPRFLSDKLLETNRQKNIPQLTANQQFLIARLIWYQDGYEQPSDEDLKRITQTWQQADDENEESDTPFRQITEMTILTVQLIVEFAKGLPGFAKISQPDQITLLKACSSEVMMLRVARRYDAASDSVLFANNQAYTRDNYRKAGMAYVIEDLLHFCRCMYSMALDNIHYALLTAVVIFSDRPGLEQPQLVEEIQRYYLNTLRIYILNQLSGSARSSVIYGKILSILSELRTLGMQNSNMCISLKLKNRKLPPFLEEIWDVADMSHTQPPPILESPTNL
T6 sequence (O76202 whole entry partner): as the sequence (O76202 whole entry partner) above
T7 sequence (O77240 entry or part of it, stated change not applied): as the sequence (O77240 entry or part of it, stated change not applied) above
T7 sequence (O76202 with tags, fused parts or gaps partner): as the sequence (O76202 with tags, fused parts or gaps partner) above
T5 sequence (O76202 whole entry): as the sequence (O76202 whole entry partner) above

With `CCc1ccc(C(=O)NN(C(=O)c2cc(C)cc(C)c2)C(C)(C)C)cc1` [RH 5992, tebufenozide] the β-galactosidase activity (Cf EcR) was 0.175, the β-galactosidase activity (Cf EcR + Cf ΔA/B USP) was 0.241 and the β-galactosidase activity ([1]; RH 5992 10 μM, 4 hours, yeast, Cf EcR + Cf ΔA/B USP + GRIP1, DMSO control 0.223) was 0.492. The “response of the complex to the ligand (in words)” value ([1]; complex CfEcR:CfΔA/B USP:GRIP1) was “responsive, but not very sensitive”, the β-galactosidase activity (Cf EcR + CfUSP) was 3.000 and the β-galactosidase activity (Cf USP) was 0.230. It also gave a β-galactosidase activity (Cf ΔA/B EcR + Cf USP) of 3.000 and a β-galactosidase activity [2] of 0.234.
